Reference: paper PMC6696415, “Supersaturation Potential of Amorphous Active Pharmaceutical Ingredients after Long-Term Storage” (Molecules, 2019)

Experiments:
[1] = In vitro supersaturation under non-sink conditions (µDISS Profiler, tenfold supersaturation ratio, spray-dried solids); type: physicochemical; conditions: for RAUC (AUC ratio spray-dried/crystalline) / RCmax,app (Cmax,app ratio spray-dried/crystalline): tenfold supersaturation ratio, phosphate buffer pH 6.5, 37 °C, 60 min; for Ratio AUC (RAUC) / Ratio Cmax (RCmax,app): pH 6.5, 37 °C
Protocol: The protocol is described in Edueng et al.. In short, the experiment was initiated by constructing a standard curve (R^2 ≥ 0.97) covering the possible concentrations attained from the supersaturation. […] For this purpose, a small-scale dissolution apparatus, the µDISS Profiler (pION Inc., Billerica, MA, USA), was used. The temperature and stirring rate were maintained at 37 °C and 100 rpm, respectively, and the supersaturation behavior was monitored for 60 min. The experiments were conducted in triplicate for each sample type.
The effects of physical aging and/or crystallization upon storage on the performance at tenfold supersaturation were assessed on the basis of the following parameters: (i) the apparent maximum concentration achieved (Cmax,app); (ii) the area under the curve (AUC); and (iii) the crystallization rate constant (k) (see Figure 9). Cmax,app refers to the maximum supersaturation concentration attained by dissolving amorphous solid in the medium before a decline in concentration was observed. […] The crystallization rate constant (k) defines the rate at which a decrease in concentration was observed. It gives an indication of the crystallization rate upon dissolution and is expressed as the reciprocal of the x-axis time units.
These three parameters were determined using GraphPad Prism version 8.1.0 for Windows (GraphPad Software, San Diego, CA, USA). Cmax,app was obtained by determining descriptive statistics of the tabulated dissolution data. It corresponds to the maximum value or highest point in the dissolution data (referred to as “maximum” in the Graphpad software). The AUC was computed based on the trapezoidal rule. The Cmax,app and AUC of the fresh and the aged/crystallized spray-dried samples were divided by the Cmax,app and AUC of the crystalline samples to obtain the ratios of both parameters (see Equations (1) and (2)). The ratios were then referred to as RCmax,app and RAUC, respectively. The crystallization was approximated following first-order kinetics, leading to Equation (3). The k value was determined by performing a nonlinear curve fitting of Equation (3) from the time point of Cmax,app of the supersaturation profiles of the samples using the same software. (1) RCmax,app=Cmax,SD/Cmax,cryst (2) RAUC=AUCSD/AUCcryst (3) C(t)=(C0−C∞)·e^−k·t+C∞
In Equation (3), C0 is the fitted concentration at t = 0, C∞ is the estimated concentration at infinite time, and k is the rate constant. In our study, the concentration is expressed in µg/mL while k is expressed in min^−1.

[2] = Physical stability study of spray-dried amorphous APIs stored at 75% RH, 25 °C (solid state by Raman, MDSC, PXRD); type: physicochemical; conditions: for Estimated Amorphous Content at Day 168 / Crystal Growth / Crystallization Initiation Propensity / Time to Complete Crystallization / Time to Start Crystallization: 75% RH at 25 °C; for Estimated Amorphous Content at Day 168: semi-quantitative Raman analysis; for Stability for 168 Days at 75% RH / Crystal Growth / Crystallization Initiation Propensity / Time to Complete Crystallization / Time to Start Crystallization: spray-dried amorphous API; for Stability for 168 Days at 75% RH: 25 °C; for Time to Complete Crystallization / Time to Start Crystallization: up to 168 days
Protocol: The amorphous solids were prepared by spray-drying. In short, solutions containing the APIs of interest were prepared by dissolving the crystalline powder in either ethanol, acetone, or a mixture of 90:10 (% w/w) ethanol/acetone prior to spray-drying. Any unwanted debris and particulate contaminants were removed by filtration (0.45 µm pore size). Thereafter, the solutions were spray-dried using a Büchi B-290-Mini Spray Dryer with an inert loop (Büchi Laboratoriums, Flawil, Switzerland) according to the processing parameters previously described by Edueng et al.. After spray-drying, the collected solids were divided and kept in two different wide-mouth aluminum containers. These open containers were placed in a vacuumed desiccator overnight to remove any residual solvent. The vacuum-dried solids were subsequently characterized with different solid-state analytical methods, studied for their supersaturation behavior, and stored in the stability chamber for 168 days (6 months). Following the overnight vacuum-drying, the spray-dried materials were placed in a stability chamber with a 75% relative humidity level and constant temperature of 25 °C. The samples were stored in open wide-mouth aluminum containers. Samples were withdrawn from the stability chamber at 1, 2, 7, 14, 28, 84, and 168 day(s) for the solid-state analyses. These analyses monitored the physical stability of the amorphous API, and the supersaturation study investigated the impact of solid-state changes on the supersaturation potential and crystallization kinetics. The preparation of these materials and the physical stability protocol are described in detail in Edueng et al..
A Twin-Twin (Bruker, Coventry, UK) measuring in Bragg–Brentano geometry and equipped with a sample rotator was used to collect the X-ray diffractograms of the unprocessed crystalline and freshly spray-dried APIs. The solid samples were gently ground with a mortar and pestle when the powder was too coarse. Thereafter, they were placed on silicon sample holders which rotated at 40 rpm during the measurement. The X-ray source was a rotating copper anode with an accelerating voltage of 40 kV and current of 40 mA. The emitted Cu Kα radiation (λ = 1.54 Å) was used in the measurements. A diffraction pattern in the 2Ө range between 5° and 40° was collected at a scanning step of 0.01° and 0.3 s exposure time at each step. Primary and secondary divergence slits of 0.40 and 2.48 mm, respectively, were used. Since this technique provides a more direct interpretation regarding the amorphous and/or crystalline content of samples, it was used to ensure that the spray-dried APIs were fully amorphous prior to the initiation of other analyses. Based on this information, the reference Raman spectra for the fully amorphous and fully crystalline samples of each compound could be established.
Modulated differential scanning calorimetry (MDSC) was performed to identify and monitor the solid-state form changes of the solids (amorphous, crystalline, or a mixture of both) and to determine the temperatures of glass transition (Tg), crystallization (Tc), and melting (Tm). Approximately 1–5 mg of sample was weighed and transferred into standard aluminum pans. The lids were pin-holed to allow evaporation of any solvent or moisture. Depending on the Tg, the samples were equilibrated at either −70 °C or 0 °C to allow for at least a 20 °C baseline prior to the Tg measurement, followed by heating up to 20–30 °C above the Tm at 3 °C/min and a temperature modulation of ±1 °C every 60 s. Analyses and integrations of the thermograms were performed using TA Instruments Universal Analysis 2000 for Windows (Version 4.5A, Sollentuna, Sweden) software.
In addition to MDSC, the samples were examined by Raman spectroscopy using a Rxn-2 Hybrid Raman Spectrometer (Kaiser Optical System Inc., Ann Arbor, MI, USA). […]

[3] = aged and/or crystallized spray-dried (SD Tn, stored at 75% RH)
[4] = spray-dried samples (fresh and aged), as summarised in text from Figures 2 and 3
[5] = 2-day sample (SD T2D; 23% crystalline) stored at 75% RH
[6] = 2-day-old sample containing 23% crystallinity
[7] = 7-day sample (SD T7D; completely crystalline) stored at 75% RH

| Compound | RAUC (AUC ratio spray-dried/crystalline) [1, 3] | RCmax,app (Cmax,app ratio spray-dried/crystalline) [1, 3] | RAUC (AUC ratio spray-dried/crystalline) ([1]; freshly spray-dried (SD T0)) | RCmax,app (Cmax,app ratio spray-dried/crystalline) ([1]; freshly spray-dried (SD T0)) | Estimated Amorphous Content at Day 168 [2] [%] | Stability for 168 Days at 75% RH [2] | Crystal Growth [2] | Crystallization Initiation Propensity [2] | Time to Complete Crystallization [2] [days] | Time to Start Crystallization [2] [days] | other results |
| --- | --- | --- | --- | --- | --- | --- | --- | --- | --- | --- | --- |
| COc1ccc(Cl)cc1C(=O)NCCc1ccc(S(=O)(=O)NC(=O)NC2CCCCC2)cc1 [Glibenclamide, glibenclamide] | 4.4 | 7.6 | 4.1 | 7.2 | 94 | Moderate | Slow | High | >168 | 1 | RAUC, times higher than the crystalline counterparts [1, 4]: ~4 times; RCmax,app, times higher than the crystalline counterparts [1, 4]: approximately 7 times; Estimated Amorphous Content at Day 168 ([2]; listed as glibenclamide): approximately 94%; Estimated crystalline content ([2]; after 168 days at 75% RH): 6% |
| NS(=O)(=O)c1cc2c(cc1Cl)NCNS2(=O)=O [Hydrochlorothiazide, hydrochlorothiazide] |  |  |  |  | 0 | Low | Rapid | High | 1 | 1 |  |
| C[C@]12CCC(=O)C=C1CC[C@@H]1[C@@H]2[C@@H](O)C[C@@]2(C)[C@H]1CC[C@]2(O)C(=O)CO [Hydrocortisone, hydrocortisone] |  |  |  |  | ~89 | Moderate | Slow | High |  | 1 | Estimated crystalline content ([2]; after 168 days at 75% RH): 11% |
| CC1Cc2ccccc2N1NC(=O)c1ccc(Cl)c(S(N)(=O)=O)c1 (centres unmarked) [Indapamide, indapamide] | 2.1 | 2.5 | 1.9 | 2.3 | 100 | High |  | Low | >168 | >168 | Time to Start Crystallization ([2]; listed as indapamide): ≥ 168 days |
| CC(=O)N1CCN(c2ccc(OCC3COC(Cn4ccnc4)(c4ccc(Cl)cc4Cl)O3)cc2)CC1 (centres unmarked) [Ketoconazole, ketoconazole] | 0.8 | 1.1 | 1.6 | 2.0 | 0 | Low | Rapid | High | 7 | 1 | Ratio AUC (RAUC) [1, 5]: 0.7; Ratio Cmax (RCmax,app) [1, 5]: 0.9; Decrease of AUC ratio versus fresh sample [1, 6]: 50%; Decrease of Cmax ratio (Cmax,app) versus fresh sample [1, 6]: 50%; Ratio AUC (RAUC) [1, 7]: 0.8; Ratio Cmax (RCmax,app) [1, 7]: 1.1; Decrease of RCmax,app versus fresh sample ([1]; completely crystallized spray-dried sample): 50%; Estimated crystalline content ([2]; 2-day sample (T2D) at 75% RH): 23% |
| Cc1ccccc1N1C(=O)c2cc(S(N)(=O)=O)c(Cl)cc2NC1C (centres unmarked) [Metolazone, metolazone] | 1.8 | 2.8 | 1.5 | 2.8 | 100 | High |  | Low | >168 | >168 | Time to Start Crystallization ([2]; listed as metolazone): ≥ 168 days |
| Nc1ccc(S(=O)(=O)Nc2nccs2)cc1 [Sulfathiazole, sulfathiazole] | 1.5 | 1.5 | 1.5 | 1.6 | 0 | Low | Rapid | High | 1 | 1 |  |
